PMC4430447 (International journal of pharmaceutics, 2014)
“Also recorded” adds a separate entry of the source. Where two headings read alike, the source gives them in different places.

Experiments:
human NTCP [1] = target: T1, human NTCP (Homo sapiens, UniProt Q14973); test: Uptake study on NTCP-HEK293 cells; format: cell-based; conditions: for Normalized Jmax: Jmax of compound normalized against Jmax of taurocholate; for Kt: Michaelis-Menten constant of uptake, 5 min, 0-200 μM in HBSS; for NTCP substrate (in words): uptake in presence versus absence of sodium
T1 sequence (Q14973 1-349): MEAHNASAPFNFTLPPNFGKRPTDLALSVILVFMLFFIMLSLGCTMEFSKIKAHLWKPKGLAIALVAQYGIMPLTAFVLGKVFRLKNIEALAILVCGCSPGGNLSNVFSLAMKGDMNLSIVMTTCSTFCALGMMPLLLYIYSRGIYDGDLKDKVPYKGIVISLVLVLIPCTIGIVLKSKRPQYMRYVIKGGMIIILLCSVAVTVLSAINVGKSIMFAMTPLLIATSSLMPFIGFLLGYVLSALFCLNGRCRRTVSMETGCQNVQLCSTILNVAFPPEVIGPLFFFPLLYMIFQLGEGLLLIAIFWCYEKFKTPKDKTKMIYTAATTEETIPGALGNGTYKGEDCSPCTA

NTCP-HEK293 cells = test: Passive uptake in the absence of sodium
human NTCP [2] = target: T1, human NTCP; test: Inhibition of taurocholate uptake into NTCP-HEK293 cells; format: cell-based; conditions: for Inhibition of NTCP taurocholate uptake (in words): NTCP-HEK293 cells, 0-200 μM
human NTCP [3] = target: T1, human NTCP; test: Inhibition of irbesartan or losartan uptake by taurocholate in NTCP-HEK293 cells; format: cell-based; conditions: substrates irbesartan or losartan
human NTCP [4] = target: T1, human NTCP; conditions: ref Dong et al., 2013, cited from earlier work

For `C[C@H](CCC(=O)O)[C@H]1CC[C@H]2[C@@H]3[C@H](O)C[C@@H]4C[C@H](O)CC[C@]4(C)[C@H]3C[C@H](O)[C@]12C` [CA, cholate], the “Normalized Jmax” value (human NTCP [1]) was 0.523 ± 0.081, the Kt (human NTCP [1]; NTCP-HEK293 cells) was 54.9 µM and the “NTCP substrate (in words)” value (human NTCP [1]; NTCP-HEK293 cells) was “substrates”. The “Pp (passive permeability)” value (NTCP-HEK293 cells) was 4.56 ± 0.06 cm/s ×10^6.
For `CCCCc1nc(Cl)c(CO)n1Cc1ccc(-c2ccccc2-c2nn[nH]n2)cc1` [Losartan], the “Pp (passive permeability)” value (NTCP-HEK293 cells) was 1.48 ± 0.12 cm/s ×10^6.
In the case of `C[C@H](CCC(=O)NCC(=O)O)[C@H]1CC[C@H]2[C@@H]3[C@H](O)C[C@@H]4C[C@H](O)CC[C@]4(C)[C@H]3CC[C@]12C` [GCDCA, glycochenodeoxycholate], the “Normalized Jmax” value (human NTCP [1]) is reported as 0.726 ± 0.091, the Kt (human NTCP [1]; NTCP-HEK293 cells) is reported as 10.9 ± 1.8 µM and the “Pp (passive permeability)” value (NTCP-HEK293 cells) is reported as 2.17 ± 0.32 cm/s ×10^6.
For `C[C@H](CCC(=O)NCC(=O)O)[C@H]1CC[C@H]2[C@@H]3[C@@H](O)C[C@@H]4C[C@H](O)CC[C@]4(C)[C@H]3CC[C@]12C` [GUDCA, glycoursodeoxycholate], the “Normalized Jmax” value (human NTCP [1]) was 0.460 ± 0.143, the Ki (human NTCP [2]) was 15 µM and the “Inhibition of NTCP taurocholate uptake (in words)” value (human NTCP [2]) was “reduced by GUDCA in a concentration-dependent manner”.
For `C[C@H](CCC(=O)NCCS(=O)(=O)O)[C@H]1CC[C@H]2[C@@H]3[C@H](O)C[C@@H]4C[C@H](O)CC[C@]4(C)[C@H]3C[C@H](O)[C@]12C` [TCA, taurocholate], the “Normalized Jmax” value (human NTCP [1]) was 0.708 ± 0.057, the Kt (human NTCP [1]; NTCP-HEK293 cells) was 19.8 ± 2.5 µM and the “Inhibition of irbesartan and losartan uptake (in words)” value (human NTCP [3]) was “inhibited irbesartan and losartan uptake in a concentration dependent fashion”. For the same compound, the “Kt (NTCP taurocholate Michaelis-Menten constant)” value (human NTCP [4]; used in Equation 1) was 22.7(+3.4) μM.
With `CCCCC1=NC2(CCCC2)C(=O)N1Cc1ccc(-c2ccccc2-c2nnn[nH]2)cc1` [Irbesartan] the “Normalized Jmax” value (human NTCP [1]) was 0.172 ± 0.022, the Kt (human NTCP [1]; NTCP-HEK293 cells) was 32.7 ± 5.9 µM and the Jmax (human NTCP [1]; maximal flux, NTCP-HEK293 cells) was 0.430 ± 0.026 pmol/sec/cm^2. For the same compound, the “NTCP substrate (in words)” value (human NTCP [1]; NTCP-HEK293 cells) was “substrates of human NTCP”, the “Jmax relative to taurocholate Jmax” value (human NTCP [1]; versus taurocholate Jmax) was “about 20%” and the “Pp (passive permeability)” value (NTCP-HEK293 cells) was 6.27 ± 0.14 cm/s ×10^6. The “Previously identified as NTCP inhibitor (in words)” value (human NTCP [4]) was “previously identified as NTCP inhibitors”.
In the case of `C[C@H](CCC(=O)NCCS(=O)(=O)O)[C@H]1CC[C@H]2[C@@H]3CC[C@@H]4C[C@H](O)CC[C@]4(C)[C@H]3CC[C@]12C` [TLCA, taurolithocholate], the “Normalized Jmax” value (human NTCP [1]) is reported as 0.495 ± 0.053, the Kt (human NTCP [1]; NTCP-HEK293 cells) is reported as 6.50 ± 1.87 µM and the “Pp (passive permeability)” value (NTCP-HEK293 cells) is reported as 3.37 ± 0.63 cm/s ×10^6.
In the case of `O=C1[C@H](CC[C@H](O)c2ccc(F)cc2)[C@@H](c2ccc(O)cc2)N1c1ccc(F)cc1` [Ezetimibe], the “NTCP substrate (in words)” value (human NTCP [1]; NTCP-HEK293 cells) is given as “not to be NTCP substrates” and the “Previously identified as NTCP inhibitor (in words)” value (human NTCP [4]) is given as “previously identified as NTCP inhibitors”.
In the case of `CC(C)[C@H](NC(=O)CC[C@@H](C)[C@H]1CC[C@H]2[C@@H]3[C@H](O)C[C@@H]4C[C@H](O)CC[C@]4(C)[C@H]3CC[C@]12C)C(=O)O` [CDCA-L-Val-OH], the “Normalized Jmax” value (human NTCP [1]) is reported as 0.330 ± 0.031, the Kt (human NTCP [1]; NTCP-HEK293 cells) is reported as 9.62 ± 1.47 µM and the “Pp (passive permeability)” value (NTCP-HEK293 cells) is reported as 1.47 ± 0.09 cm/s ×10^6.
In the case of `C[C@H](CCC(=O)O)[C@H]1CC[C@H]2[C@@H]3[C@H](O)C[C@@H]4C[C@H](O)CC[C@]4(C)[C@H]3CC[C@]12C` [CDCA, chenodeoxycholate], the “NTCP substrate (in words)” value (human NTCP [1]; NTCP-HEK293 cells) is reported as “indistinguishable uptake in the presence or absence of sodium; also recorded: no NTCP uptake” and the “Pp (passive permeability)” value (NTCP-HEK293 cells) is reported as 27.6 ± 1.5 cm/s ×10^6.
In the case of `C[C@H](CCC(=O)O)[C@H]1CC[C@H]2[C@@H]3C(=O)C[C@@H]4CC(=O)CC[C@]4(C)[C@H]3CC(=O)[C@]12C` [DHCA, dehydrocholate], the “Inhibition of NTCP taurocholate uptake (in words)” value (human NTCP [2]) is reported as “not an inhibitor of NTCP”.
For `CC(C)OC(=O)C(C)(C)Oc1ccc(C(=O)c2ccc(Cl)cc2)cc1` [Fenofibrate], the “NTCP substrate (in words)” value (human NTCP [1]; NTCP-HEK293 cells) is given as “not to be NTCP substrates” and the “Previously identified as NTCP inhibitor (in words)” value (human NTCP [4]) is given as “previously observed them to be inhibitors”.
For `C[C@H](CCC(=O)NCCS(=O)(=O)O)[C@H]1CC[C@H]2[C@@H]3[C@@H](O)C[C@@H]4C[C@H](O)CC[C@]4(C)[C@H]3CC[C@]12C` [TUDCA, tauroursodeoxycholate], the “Normalized Jmax” value (human NTCP [1]) was 0.409 ± 0.038 and the Kt (human NTCP [1]; NTCP-HEK293 cells) was 9.53 µM.
For `C[C@H](CCC(=O)NCC(=O)O)[C@H]1CC[C@H]2[C@@H]3CC[C@@H]4C[C@H](O)CC[C@]4(C)[C@H]3CC[C@]12C` [GLCA, glycolithocholate], the “Normalized Jmax” value (human NTCP [1]) was 0.384 ± 0.070, the Kt (human NTCP [1]; NTCP-HEK293 cells) was 4.87 ± 3.49 µM and the Ki (human NTCP [2]) was roughly 5 µM. The Ki (human NTCP [2]; listed as Lithocholate Glycine) was 7.29 µM and the “Pp (passive permeability)” value (NTCP-HEK293 cells) was 6.67 ± 0.95 cm/s ×10^6.
For `C[C@H](CCC(=O)O)[C@H]1CC[C@H]2[C@@H]3[C@@H](O)C[C@@H]4C[C@H](O)CC[C@]4(C)[C@H]3CC[C@]12C` [UDCA, ursodeoxycholate], the “Normalized Jmax” value (human NTCP [1]) was 0.0511 ± 0.0093, the Kt (human NTCP [1]; NTCP-HEK293 cells) was 1.55 µM and the “NTCP substrate (in words)” value (human NTCP [1]; NTCP-HEK293 cells) was “substrates”. The “Normalized Jmax, fold lower than that for taurocholate” value (human NTCP [1]; versus taurocholate) was 14 fold and the “Pp (passive permeability)” value (NTCP-HEK293 cells) was 26.3 ± 1.1 cm/s ×10^6.
For `C[C@H](CCC(=O)NCC(=O)O)[C@H]1CC[C@H]2[C@@H]3[C@H](O)C[C@@H]4C[C@H](O)CC[C@]4(C)[C@H]3C[C@H](O)[C@]12C` [GCA, glycocholate], the “Normalized Jmax” value (human NTCP [1]) was 0.508 ± 0.041 and the Kt (human NTCP [1]; NTCP-HEK293 cells) was 15.8 ± 2.7 µM.
For `CC(C)c1nc(N(C)S(C)(=O)=O)nc(-c2ccc(F)cc2)c1/C=C/[C@@H](O)C[C@@H](O)CC(=O)O` [Rosuvastatin], the “Pp (passive permeability)” value (NTCP-HEK293 cells) was 0.330 ± 0.006 cm/s ×10^6.
In the case of `C[C@H](CCC(=O)NCCS(=O)(=O)O)[C@H]1CC[C@H]2[C@@H]3[C@H](O)C[C@@H]4C[C@H](O)CC[C@]4(C)[C@H]3CC[C@]12C` [TCDCA, taurochenodeoxycholate], the “Normalized Jmax” value (human NTCP [1]) is reported as 0.621 ± 0.058, the Kt (human NTCP [1]; NTCP-HEK293 cells) is reported as 8.12 ± 1.20 µM and the “Pp (passive permeability)” value (NTCP-HEK293 cells) is reported as 4.35 ± 0.70 cm/s ×10^6.
With `C[C@H](CCC(=O)O)[C@H]1CC[C@H]2[C@@H]3CC[C@@H]4C[C@H](O)CC[C@]4(C)[C@H]3CC[C@]12C` [LCA, lithocholate] the “NTCP substrate (in words)” value (human NTCP [1]; NTCP-HEK293 cells) was “indistinguishable uptake in the presence or absence of sodium; also recorded: not an apparent substrate” and the “Pp (passive permeability)” value (NTCP-HEK293 cells) was 33.9 ± 3.3 cm/s ×10^6.
With `C[C@H](CCC(=O)N[C@@H](CCC(=O)OCc1ccccc1)C(=O)O)[C@H]1CC[C@H]2[C@@H]3[C@H](O)C[C@@H]4C[C@H](O)CC[C@]4(C)[C@H]3CC[C@]12C` [CDCA-L-Glu-γ-Benzyl Ester] the “Normalized Jmax” value (human NTCP [1]) was 0.233 ± 0.036, the Kt (human NTCP [1]; NTCP-HEK293 cells) was 11.7 ± 4.3 µM and the “Pp (passive permeability)” value (NTCP-HEK293 cells) was 7.70 ± 0.23 cm/s ×10^6.
